In patent US8378117B2 (priority 2005, dated 2013):
Like-named read-outs stand apart in the source and are kept apart here.

Key:
CB1 receptor = target: T1, CB1 receptor (Homo sapiens, UniProt P21554); assay: Binding assay for CB1 agonists or inverse agonists (SK-N-MC membranes, [3H]-CP-55,940); settings: for IC50: Cannabinoid CB1 Receptor Binding IC50, calculated by linear regression from percent inhibition at various test concentrations; for CB1 receptor binding average percent inhibition: value shown is an average percent inhibition (footnote 5), concentration not given
T1 construct: expressed in transfected cells
Method in brief: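 Radioligand displacement: [3H]-CP-55,940 at […], 90 min at 30° C, pH 7.5 Tris buffer with 0.5 mg/mL fatty-acid-free BSA, using semi-purified membranes of human-CB1-transfected SK-N-MC cells. Bound counts collected on GF/C filters, 10 uM WIN 55,212 for non-specific; IC50 from percent inhibition over several concentrations.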

CB2 receptor = target: T2, CB2 receptor (Homo sapiens, UniProt P34972); assay: Binding assay for CB2 agonists or inverse agonists (SK-N-MC membranes, [3H]-CP-55,940); settings: for inhibition at 1 µM: test concentration 1 μM (footnote 1)
T2 construct: expressed in transfected cells
Method in brief: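 IC50 came from percent-inhibition data over several compound concentrations, fitted by linear regression. Binding used semi-purified membranes of human CB2-transfected SK-N-MC cells, 90 min at 30 °C, pH 7.5 Tris-HCl with MgCl2, EDTA and BSA, then filtration and scintillation counting.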

[1] = read-out: CB1 receptor binding percent inhibition, test concentration 1 μM (footnote 1)
[2] = read-out: CB1 receptor binding percent inhibition, test concentration 0.2 μM (footnote 2)
[3] = test concentration 0.2 μM (footnote 2), read-out: CB2 receptor binding percent inhibition
[4] = test concentration 0.2 μM (footnote 2)
[5] = calculated by linear regression from percent inhibition at various test concentrations, read-out: Cannabinoid CB2 Receptor Binding IC50
[6] = read-out: CB2 receptor binding percent inhibition
[7] = Cannabinoid CB2 Receptor Binding IC50, calculated by linear regression from percent inhibition at various test concentrations
[8] = read-out: CB1 receptor binding percent inhibition
[9] = read-out: CB2 receptor binding percent inhibition, test concentration 0.2 μM (footnote 2)

T1 sequence (P21554 whole entry): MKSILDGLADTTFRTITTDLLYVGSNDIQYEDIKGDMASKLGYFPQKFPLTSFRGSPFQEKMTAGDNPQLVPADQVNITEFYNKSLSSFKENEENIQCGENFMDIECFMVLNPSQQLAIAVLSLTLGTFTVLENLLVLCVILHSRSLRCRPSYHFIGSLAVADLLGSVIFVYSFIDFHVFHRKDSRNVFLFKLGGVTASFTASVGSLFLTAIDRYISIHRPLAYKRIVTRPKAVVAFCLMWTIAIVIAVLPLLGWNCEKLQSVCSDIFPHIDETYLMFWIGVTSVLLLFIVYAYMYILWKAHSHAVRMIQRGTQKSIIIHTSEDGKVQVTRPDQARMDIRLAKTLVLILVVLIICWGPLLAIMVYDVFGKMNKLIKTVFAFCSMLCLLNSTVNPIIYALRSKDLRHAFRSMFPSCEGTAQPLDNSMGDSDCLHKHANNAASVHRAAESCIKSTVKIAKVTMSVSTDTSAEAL
T2 sequence (P34972 whole entry): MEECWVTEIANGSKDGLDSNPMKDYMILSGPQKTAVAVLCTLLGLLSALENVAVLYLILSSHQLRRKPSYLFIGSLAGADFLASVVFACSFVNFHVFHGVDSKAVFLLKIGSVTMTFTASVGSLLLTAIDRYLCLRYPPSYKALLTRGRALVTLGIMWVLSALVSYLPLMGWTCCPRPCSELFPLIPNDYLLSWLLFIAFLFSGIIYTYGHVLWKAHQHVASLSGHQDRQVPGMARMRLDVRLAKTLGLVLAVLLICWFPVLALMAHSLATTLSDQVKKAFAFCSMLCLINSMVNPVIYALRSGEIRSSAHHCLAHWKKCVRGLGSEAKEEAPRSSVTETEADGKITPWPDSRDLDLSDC

## COC(=O)[C@@H](Cc1ccc(O)cc1)NC(=O)c1nn(-c2ccc(F)cc2F)c2c1CCCCC2Cc1cccc(F)c1 (stereo partly drawn) [Cpd 95, (2R)-2-{[1-(2,4-difluoro-phenyl)-8-(3-fluoro-benzyl)-1,4,5,6,7,8-hexahydro-cycloheptapyrazole-3-carbonyl]-amino}-3-(4-hydroxy-phenyl)-propionic acid methyl ester]
CB1 receptor; [1]
  inhibition at 1 µM: 36%
CB2 receptor; test concentration not stated
  CB2 receptor binding percent inhibition: 35%

## O=C(N[C@H](CCl)c1ccccc1)c1nn(-c2nccc(C(F)(F)F)n2)c2c1CCCCC2Cc1cccc(Cl)c1 (stereo partly drawn) [Cpd 179, 8-(3-chloro-benzyl)-1-(4-trifluoromethyl-pyrimidin-2-yl)-1,4,5,6,7,8-hexahydro-cycloheptapyrazole-3-carboxylic acid [(1S)-2-chloro-1-phenyl-ethyl]-amide]
CB1 receptor; [2]
  inhibition at 0.2 µM: 0%
CB2 receptor; [3]
  inhibition at 0.2 µM: 29%

## O=C(NN1CCCCC1)c1nn(-c2cc(Cl)ccc2Cl)c2c1CCCC/C2=C\c1ccc(Cl)cc1 [Cpd 199, (8E)-8-(4-chloro-benzylidene)-1-(2,5-dichloro-phenyl)-1,4,5,6,7,8-hexahydro-cycloheptapyrazole-3-carboxylic acid piperidin-1-ylamide]
CB1 receptor; [2]
  inhibition at 0.2 µM: 30%
CB2 receptor; [3]
  inhibition at 0.2 µM: 30%

## C[C@H](NC(=O)c1n[nH]c2c1CCCC/C2=C\c1ccc(Cl)cc1)C1CCCCC1 [Cpd 143, (8E)-8-(4-chloro-benzylidene)-1,4,5,6,7,8-hexahydro-cycloheptapyrazole-3-carboxylic acid [(1S)-1-cyclohexyl-ethyl]-amide]
CB1 receptor
  IC50: 2 nM
CB1 receptor; read-out: CB1 receptor binding percent inhibition, test concentration 0.002 μM (footnote 11)
  inhibition at 0.002 µM: 55%
CB1 receptor; [2]
  inhibition at 0.2 µM: 99%
CB1 receptor; test concentration not stated
  CB1 receptor binding percent inhibition: 77%
CB2 receptor; [4]
  CB2 receptor binding percent inhibition: ^(2)100%

## COC(=O)[C@H](Cc1ccc(F)cc1)NC(=O)c1nn(C2CCCCC2)c2c1CCCCC2Cc1ccc(F)cc1 (stereo partly drawn) [Cpd 63, (2S)-2-{[1-cyclohexyl-8-(4-fluoro-benzyl)-1,4,5,6,7,8-hexahydro-cycloheptapyrazole-3-carbonyl]-amino}-3-(4-fluoro-phenyl)-propionic acid methyl ester]
CB1 receptor; [1]
  inhibition at 1 µM: 29%
CB2 receptor; test concentration not stated
  CB2 receptor binding percent inhibition: 69%

## CC(C)[C@@H](CO)NC(=O)c1nn(-c2ccc(Cl)cc2Cl)c2c1CCCC[C@H]2Cc1cccc(Cl)c1 [Cpd 159, (8S)-8-(3-chloro-benzyl)-1-(2,4-dichloro-phenyl)-1,4,5,6,7,8-hexahydro-cycloheptapyrazole-3-carboxylic acid [(1S)-1-hydroxymethyl-2-methyl-propyl]-amide]
CB1 receptor; [2]
  inhibition at 0.2 µM: 40%
CB2 receptor; [3]
  inhibition at 0.2 µM: 3%

## C[C@H](NC(=O)c1nn(C2CCCCC2)c2c1CCCCC2Cc1ccc(F)cc1)c1ccccc1 (stereo partly drawn) [Cpd 64, 1-cyclohexyl-8-(4-fluoro-benzyl)-1,4,5,6,7,8-hexahydro-cycloheptapyrazole-3-carboxylic acid [(1S)-1-phenyl-ethyl]-amide]
CB1 receptor; [1]
  inhibition at 1 µM: 51%
CB2 receptor; [5]
  IC50: 600 nM
CB2 receptor; [6]
  inhibition at 1 µM: 70%

## CCOC(=O)[C@H]1C2C=CC(C2)[C@H]1NC(=O)c1nn(C2CCCCC2)c2c1CCCCC2Cc1cccc(F)c1 (stereo partly drawn) [Cpd 74, (2S,3R)-3-{[1-cyclohexyl-8-(3-fluoro-benzyl)-1,4,5,6,7,8-hexahydro-cycloheptapyrazole-3-carbonyl]-amino}-bicyclo[2.2.1]hept-5-ene-2-carboxylic acid ethyl ester]
CB1 receptor
  CB1 receptor binding average percent inhibition: ^(5)1%
CB2 receptor; test concentration not stated
  CB2 receptor binding percent inhibition: 10%

## C[C@H](NS(=O)(=O)/C=C/c1nn(C)c2c1CCCCC2Cc1ccc(F)cc1)c1ccccc1 (stereo partly drawn) [Cpd 101, (2E)-2-[8-(4-fluoro-benzyl)-1-methyl-1,4,5,6,7,8-hexahydro-cycloheptapyrazol-3-yl]-ethenesulfonic acid [(1S)-1-phenyl-ethyl]-amide]
CB1 receptor; [1]
  inhibition at 1 µM: 28%
CB2 receptor; [7]
  IC50: 40 nM
CB2 receptor; [6]
  inhibition at 1 µM: 97%

## Cn1nc(/C=C/S(=O)(=O)NN2CCOCC2)c2c1C(Cc1cccc(F)c1)CCCC2 (centres unmarked) [Cpd 125, (2E)-2-[8-(3-fluoro-benzyl)-1-methyl-1,4,5,6,7,8-hexahydro-cycloheptapyrazol-3-yl]-ethenesulfonic acid morpholin-4-ylamide]
CB1 receptor; [1]
  inhibition at 1 µM: 0%
CB2 receptor; test concentration not stated
  CB2 receptor binding percent inhibition: 30%

## O=C(NC1CCC1)c1nn(C2CCCCC2)c2c1CCCCC2Cc1cccc(F)c1 (centres unmarked) [Cpd 43, 1-cyclohexyl-8-(3-fluoro-benzyl)-1,4,5,6,7,8-hexahydro-cycloheptapyrazole-3-carboxylic acid cyclobutylamide]
CB1 receptor; [1]
  inhibition at 1 µM: 14%
CB2 receptor; test concentration not stated
  CB2 receptor binding percent inhibition: 42%

## O=C(N[C@H](CO)c1ccccc1)c1nn(-c2ccc(F)cc2F)c2c1CCCCC2Cc1cccc(F)c1 (stereo partly drawn) [Cpd 168, 1-(2,4-difluoro-phenyl)-8-(3-fluoro-benzyl)-1,4,5,6,7,8-hexahydro-cycloheptapyrazole-3-carboxylic acid [(1S)-2-hydroxy-1-phenyl-ethyl]-amide]
CB1 receptor; [2]
  inhibition at 0.2 µM: 18%
CB2 receptor; [3]
  inhibition at 0.2 µM: 11%

## Cn1nc(/C=C/S(=O)(=O)NN2CCOCC2)c2c1C(Cc1ccc(F)cc1)CCCC2 (centres unmarked) [Cpd 126, (2E)-2-[8-(4-fluoro-benzyl)-1-methyl-1,4,5,6,7,8-hexahydro-cycloheptapyrazol-3-yl]-ethenesulfonic acid morpholin-4-ylamide]
CB1 receptor; [1]
  inhibition at 1 µM: 0%
CB2 receptor; test concentration not stated
  CB2 receptor binding percent inhibition: 65%

## O=C(NC1C2CC3CC(C2)CC1C3)c1nn(C2CCCCC2)c2c1CCCCC2Cc1cccc(Cl)c1 (centres unmarked) [Cpd 12, 8-(3-chloro-benzyl)-1-cyclohexyl-1,4,5,6,7,8-hexahydro-cycloheptapyrazole-3-carboxylic acid adamantan-2-ylamide]
CB1 receptor; [1]
  inhibition at 1 µM: 36%
CB2 receptor; test concentration not stated
  CB2 receptor binding percent inhibition: 31%

## CC12CCC(C1)C(C)(C)[C@H]2NC(=O)c1nn(-c2ccc(Cl)cc2Cl)c2c1CCCCC2Cc1ccc(F)cc1 (stereo partly drawn) [Cpd 71, 1-(2,4-dichloro-phenyl)-8-(4-fluoro-benzyl)-1,4,5,6,7,8-hexahydro-cycloheptapyrazole-3-carboxylic acid [(2S)-1,3,3-trimethyl-bicyclo[2.2.1]hept-2-yl]-amide]
CB1 receptor
  CB1 receptor binding average percent inhibition: ^(5)43%
CB2 receptor; test concentration not stated
  CB2 receptor binding percent inhibition: 32%

## CC12CCC(C1)C(C)(C)[C@H]2NC(=O)c1nn(C2CCCCC2)c2c1CCCCC2Cc1cccc(F)c1 (stereo partly drawn) [Cpd 44, 1-cyclohexyl-8-(3-fluoro-benzyl)-1,4,5,6,7,8-hexahydro-cycloheptapyrazole-3-carboxylic acid [(2S)-1,3,3-trimethyl-bicyclo[2.2.1]hept-2-yl]-amide]
CB1 receptor
  IC50: 200 nM
CB1 receptor; [8]
  inhibition at 1 µM: 82%
CB2 receptor; [5]
  IC50: 600 nM
CB2 receptor; [6]
  inhibition at 1 µM: 75%

## Cn1nc(C(=O)NC2CCC2)c2c1C(Cc1ccccc1Cl)CCCC2 (centres unmarked) [Cpd 39, 8-(2-chloro-benzyl)-1-methyl-1,4,5,6,7,8-hexahydro-cycloheptapyrazole-3-carboxylic acid cyclobutylamide]
CB1 receptor; [1]
  inhibition at 1 µM: 0%
CB2 receptor; test concentration not stated
  CB2 receptor binding percent inhibition: 30%

## O=C(N[C@H](CO)Cc1ccccc1)c1n[nH]c2c1CCCCC2Cc1cccc(Cl)c1 (stereo partly drawn) [Cpd 166, 8-(3-chloro-benzyl)-1,4,5,6,7,8-hexahydro-cycloheptapyrazole-3-carboxylic acid [(1S)-1-benzyl-2-hydroxy-ethyl]-amide]
CB1 receptor; [2]
  inhibition at 0.2 µM: 24%
CB2 receptor; [9]
  inhibition at 0.2 µM: 75%

## O=C(N[C@@H]1c2ccccc2C[C@@H]1O)c1nn(C2CCCCC2)c2c1CCCCC2Cc1cccc(F)c1 (single isomer, unassigned) [Cpd 115, (8S*)-1-cyclohexyl-8-(3-fluoro-benzyl)-1,4,5,6,7,8-hexahydro-cycloheptapyrazole-3-carboxylic acid [(1R,2S)-2-hydroxy-indan-1-yl]-amide]
CB1 receptor
  IC50: 500 nM
CB1 receptor; read-out: CB1 receptor binding percent inhibition, test concentration 0.5 μM (footnote 10)
  inhibition at 0.5 µM: 67%
CB1 receptor; test concentration 1 μM (footnote 1), 1 µM
  CB1 receptor binding percent inhibition: 79%
CB2 receptor; test concentration not stated
  CB2 receptor binding percent inhibition: 99%

## COC(=O)[C@@H](Cc1ccc(F)cc1)NC(=O)c1nn(C)c2c1CCCC/C2=C\c1cccc(F)c1 [Cpd 248, (8E)-(2R)-2-{[8-(3-fluoro-benzylidene)-1-methyl-1,4,5,6,7,8-hexahydro-cycloheptapyrazole-3-carbonyl]-amino}-3-(4-fluoro-phenyl)-propionic acid methyl ester]
CB1 receptor
  IC50: 7 nM
CB1 receptor; [2]
  inhibition at 0.2 µM: 89%
CB2 receptor; [7]
  IC50: 3 nM
CB2 receptor; [9]
  inhibition at 0.2 µM: 96%

## CC12CCC(C1)C(C)(C)[C@H]2NC(=O)c1nn(C2CCCCC2)c2c1CCCCC2Cc1cccc(Cl)c1 (stereo partly drawn) [Cpd 4, 8-(3-chloro-benzyl)-1-cyclohexyl-1,4,5,6,7,8-hexahydro-cycloheptapyrazole-3-carboxylic acid [(2S)-1,3,3-trimethyl-bicyclo[2.2.1]hept-2-yl]-amide]
CB1 receptor; [1]
  inhibition at 1 µM: 51%
CB2 receptor; test concentration not stated
  CB2 receptor binding percent inhibition: 36%

## C[C@H](NC(=O)c1n[nH]c2c1CCCC/C2=C\c1ccc(Cl)cc1)c1ccccc1 [Cpd 141, (8E)-8-(4-chloro-benzylidene)-1,4,5,6,7,8-hexahydro-cycloheptapyrazole-3-carboxylic acid [(1S)-1-phenyl-ethyl]-amide]
CB1 receptor
  IC50: 6 nM
CB1 receptor; [8]
  inhibition at 0.2 µM: 95%
CB2 receptor; [4]
  CB2 receptor binding percent inhibition: ^(2)97%
